# Like-named read-outs stand apart in the source and are kept apart here.
# How the values were obtained:
# [1] = system: CHO-PDL1/Jurkat-PD1 cell pathway; experiment: Inhibition of CHO-PDL1/Jurkat-PD1 cell pathway (NFAT luciferase reporter); format: cell-based; conditions: for EC50: 6 hours incubation, luciferase signal; for maximal fold induction: relative to the signal value of the non-dosed group, read-out: Maximum induction fold
# Summary of the method: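 CHO-K1 cells stably expressing PD-L1, plated overnight, then co-cultured with PD-1/NFAT-luc2 Jurkat cells plus compounds in RPMI 1640 with 2% FBS for 6 h at 37 °C. Luminescence read after One-Glo, 10 min at RT. EC50 fitted from the concentration–signal curve; maximum induction fold calculated relative to the non-dosed group.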
# [2] = Plasma protein binding rate (equilibrium dialysis); format: in vitro ADME; conditions: mouse plasma, equilibrium dialysis 37° C. 5 hours
# Description: Test Embodiment 8. Plasma Protein Binding Rate Experiment
# The purpose of this experimental method was to detect the plasma protein binding of the embodiment compounds in plasma.
# The frozen plasma was thawed at room temperature or in a water bath at 37° C., then centrifuged at 3500 rpm for 5 min, and the supernatant was taken.
# Preparation of compound working solution: Stock solutions were diluted with DMSO to a final concentration of 1 mM.
# 2.5 μL of compound working solution was added to 497.5 μL of blank plasma to a final concentration of 5 μM, shaked and mixed well.
# 1) The equilibrium dialysis device was prepared, and the detection membrane device was put into the equilibrium dialysis 96-well plate;
# 2) 200 μL of the prepared plasma solution was added to the membrane, n=2;
# 3) another 5 μL of plasma solution was taken, diluted 10 times with 45 μL of blank plasma of the same species, and 200 μL of acetonitrile termination solution containing internal standard was added, and stored in a −20° C. refrigerator;
# 4) 350 μL of dialysate (100 mM phosphate buffer) was added outside the membrane;
# 5) the dialysis plate was sealed and incubated in a 37° C. water bath for 5 hours;
# 6) after dialysis, 5 μL was taken out from the sample hole in the membrane, and diluted 10 times with 45 μL of blank plasma of the same species; 50 μL of dialysate was taken out from the sample hole outside the membrane, and 200 μL of acetonitrile termination solution containing internal standard was added;
# 7) the supernatant was taken after sample centrifugation;
# human PD-L1 protein = molecular target: T1, human PD-L1 protein (Homo sapiens, UniProt Q9NZQ7); experiment: Thermal shift: melting temperature of PD-L1 protein; format: binding; conditions: read-out: ΔTm (° C.)
# T1 construct: purchased Acro Biosystems PD1-H5229
# T1 sequence (Q9NZQ7 19-238 limits assumed): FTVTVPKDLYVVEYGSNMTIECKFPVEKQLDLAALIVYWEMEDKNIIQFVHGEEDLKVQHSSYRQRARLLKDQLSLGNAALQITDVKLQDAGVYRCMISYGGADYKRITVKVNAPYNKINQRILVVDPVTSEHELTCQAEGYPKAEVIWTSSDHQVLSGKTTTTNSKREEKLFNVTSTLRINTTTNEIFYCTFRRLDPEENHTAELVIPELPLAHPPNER
# Summary of the method: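 Human PD-L1 at 2 μM final was tested in […], 150 mM NaCl with SYPRO Orange, heated 25→95 °C at 0.03 °C/s in a PCR melt-curve run. Tm was taken per treatment; ΔTm is the shift relative to DMSO vehicle.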
# MC38-hPDL1 cells = experiment: In vitro cytotoxicity on MC38-hPDL1 cells (CellTiter-Glo); format: cell-based, mouse; conditions: for MC38-hPDL1 inhibition rate (%): 72 hours; for IC50: Mus musculus, MC38-hPD-L1, 72 hours
# Description: Test Embodiment 5. In Vitro Cytotoxicity of the Compounds of the Present Disclosure on NFAT-Luc2/PD1 Jurkat Cells and MC38-hPDL1 Cells
# Experimental purpose: To test the in vitro cytotoxicity of compounds on NFAT-luc2/PD1 Jurkat cells and MC38-hPDL1 cells.
# When the cells were cultured to an appropriate degree of confluency, the cells were collected, and the cells was adjusted in an appropriate cell concentration by complete medium, then the cell suspension was plated in a 96-well plate, 90 μL per well, and put in a 37° C., 5% CO2 incubator overnight; compound solutions of different concentrations were prepared by DMSO and medium, and a vehicle control was set; compound solutions were added to a 96-well plate, 10 μL per well, and put in a 37° C., 5% CO2 incubator and cultured for 72 hours. After that, CellTiter-Glo solution was added, the mixture was shaken and mixed evenly, incubated in the dark for 10 minutes, and a BioTek Synergy H1 microplate reader was used for reading.
# Luminescence signal value was used to calculate the inhibition rate, and the concentration and inhibition rate were fitted by nonlinear regression curve using Graphpad Prism software to obtain IC50 values, as shown in the following table: […]
# [3] = compound 10 μM, PD-L1 protein 2 μM, Tm minus DMSO vehicle control
ΔTm at 10 µM (human PD-L1 protein; [3]) [°C],SMILES,EC50 [1] [µM],maximal fold induction [1],"fraction unbound at 5 h, 5 μM [2]",ΔTm at 10 µM (human PD-L1 protein) [°C],MC38-hPDL1 inhibition rate (%) (MC38-hPDL1 cells),IC50 (MC38-hPDL1 cells) [µM]
16.6,"COc1nc(-c2cccc(-c3cccc(NC(=O)c4nc5c(n4C)CCN(C)C5)c3Cl)c2Cl)ccc1CNC(CO)CO [Embodiment 174, N-(2,2′-Dichloro-3′-(5-(((1,3-dihydroxypropan-2-yl)amino)methyl)-6-methoxypyridin-2-yl)-[1,1′-biphenyl]-3-yl)-1,5-dimethyl-4,5,6,7-tetrahydro-1H-imidazo[4,5-c]pyridine-2-carboxamide]",0.066,3.5,–,–,–,–
14,COc1nc(-c2cccc(-c3cccc(NC(=O)c4nc5c(n4C)CCN(C)C5)c3Cl)c2Cl)ccc1CN1CC2(C1)CN(S(C)(=O)=O)C2 [Embodiment 192],0.085,3.8,–,–,–,–
13.7,"COc1nc(-c2cccc(-c3cccc(NC(=O)c4nc5c(n4C)CCN(C)C5)c3Cl)c2Cl)cnc1CN1CC(NC(C)=O)C1 [Embodiment 218, N-(3′-(5-((3-Acetylaminoazetidin-1-yl)methyl)-6-methoxypyrazin-2-yl)-2,2′-dichloro-[1,1′-biphenyl]-3-yl)-1,5-dimethyl-4,5,6,7-tetrahydro-1H-imidazo[4,5-c]pyridine-2-carboxamide]",0.054,2.8,–,–,51,9.35
12.3,"COc1nc(-c2cccc(-c3cccc(NC(=O)c4nc5c(n4C)CCN(C)C5)c3Cl)c2Cl)ncc1CN1CC(CO)C1 [Embodiment 223, N-(2,2′-Dichloro-3′-(5-((3-(hydroxymethyl)azetidin-1-yl)methyl)-4-methoxypyrimidin-2-yl)-[1,1′-biphenyl]-3-yl)-1,5-dimethyl-4,5,6,7-tetrahydro-1H-imidazo[4,5-c]pyridine-2-carboxamide]",0.073,3.3,–,–,2,> 10
18.7,"COc1nc(-c2cccc(-c3cccc(NC(=O)c4nc5c(n4C)CCN(C)C5)c3Cl)c2Cl)ccc1CNC[C@H](C)O [Embodiment 127, (S)—N-(2,2′-Dichloro-3′-(5-(((2-hydroxypropyl)amino)methyl)-6-methoxypyridin-2-yl)-[1,1′-biphenyl]-3-yl)-1,5-dimethyl-4,5,6,7-tetrahydro-1H-imidazo[4,5-c]pyridine-2-carboxamide]",–,–,–,–,–,–
13.5,"COc1nc(-c2cccc(-c3cccc(NC(=O)c4nc5c(n4C)CCN(C)C5)c3Cl)c2Cl)ccc1CN1CC(O)(CO)C1 [Embodiment 173, N-(2,2′-Dichloro-3′-(5-((3-hydroxy-3-(hydroxymethyl)azetidin-1-yl)methyl)-6-methoxypyridin-2-yl)-[1,1-biphenyl]-3-yl)-1,5-dimethyl-4,5,6,7-tetrahydro-1H-imidazo[4,5-c]pyridine-2-carboxamide]",0.082,3.7,–,–,–,–
21,"COc1nc(-c2cccc(-c3cccc(NC(=O)c4nc5c(n4C)CCN(C)C5)c3Cl)c2Cl)ccc1CN1CC(C(=O)N(C)C)C1 [Embodiment 183, N-(2,2′-Dichloro-3′-(5-((3-(dimethylcarbamoyl)azetidin-1-yl)methyl)-6-methoxypyridin-2-yl)-[1,1′-biphenyl]-3-yl)-1,5-dimethyl-4,5,6,7-tetrahydro-1H-imidazo[4,5-c]pyridine-2-carboxamide]",–,–,–,–,14,> 10

# The next lines start with the molecule.
SMILES,ΔTm at 10 µM (human PD-L1 protein; [3]) [°C],EC50 [1] [µM],maximal fold induction [1],"fraction unbound at 5 h, 5 μM [2]",ΔTm at 10 µM (human PD-L1 protein) [°C],MC38-hPDL1 inhibition rate (%) (MC38-hPDL1 cells),IC50 (MC38-hPDL1 cells) [µM]
"CCC(=O)N1CC2(CN(Cc3ccc(-c4cccc(-c5cccc(NC(=O)c6nc7c(n6C)CCN(C)C7)c5Cl)c4Cl)nc3OC)C2)C1 [Embodiment 188, N-(2,2′-Dichloro-3′-(6-methoxy-5-((6-propionyl-2,6-diazaspiro[3.3]heptan-2-yl)methyl)pyridin-2-yl)-[1,1′-biphenyl]-3-yl)-1,5-dimethyl-4,5,6,7-tetrahydro-1H-imidazo[4,5-c]pyridine-2-carboxamide]",–,0.093,3.8,0.0052,16.5,–,–
"COc1nc(-c2cccc(-c3cccc(NC(=O)c4nc5c(n4C)CCN(C)C5)c3Cl)c2Cl)ncc1CN1CC(CNC(C)=O)C1 [Embodiment 225, N-(3′-(5-((3-(Acetylaminomethyl)azetidin-1-yl)methyl)-4-methoxypyrimidin-2-yl)-2,2′-dichloro-[1,1′-biphenyl]-3-yl)-1,5-dimethyl-4,5,6,7-tetrahydro-1H-imidazo[4,5-c]pyridine-2-carboxamide]",–,–,–,–,–,1,> 10
"COc1nc(-c2cccc(-c3cccc(NC(=O)c4nc5c(n4C)CCN(C)C5)c3Cl)c2Cl)ccc1CN1CC2(COC2)C1 [Embodiment 124, N-(3′-(5-((2-Oxa-6-azaspiro[3.3]heptan-6-yl)methyl)-6-methoxypyridin-2-yl)-2,2′-dichloro-[1,1′-biphenyl]-3-yl)-1,5-dimethyl-4,5,6,7-tetrahydro-1H-imidazo[4,5-c]pyridine-2-carboxamide]",16.2,–,–,0.0057,–,–,–
"CNC(=O)CNCc1cnc(C(=O)Nc2cccc(-c3cccc(NC(=O)c4nc5c(n4C)CCN(C)C5)c3Cl)c2C)cc1OC [Embodiment 95, N-(2-Chloro-3′-(4-methoxy-5-(((2-(methylamino)-2-carbonylethyl)amino)methyl)picolinamido)-2′-methyl-[1,1′-biphenyl]-3-yl)-1,5-dimethyl-4,5,6,7-tetrahydro-1H-imidazo[4,5-c]pyridine-2-carboxamide]",14.4,0.094,3.8,–,–,–,–
"COc1nc(-c2cccc(-c3cccc(NC(=O)c4nc5c(n4C)CCN(C)C5)c3Cl)c2Cl)ccc1CN1CC2(CC(NC(C)=O)C2)C1 [Embodiment 234, N-(3′-(5-((6-Acetylamino-2-azaspiro[3.3]heptan-2-yl)methyl)-6-methoxypyridin-2-yl)-2,2′-dichloro-[1,1′-biphenyl]-3-yl)-1,5-dimethyl-4,5,6,7-tetrahydro-1H-imidazo[4,5-c]pyridine-2-carboxamide]",15.6,0.078,4.7,–,–,–,–
"COc1nc(-c2cccc(-c3cccc(NC(=O)c4nc5c(n4C)CCN(C)C5)c3Cl)c2Cl)ccc1CN1CC(F)C1 [Embodiment 120, N-(2,2′-Dichloro-3′-(5-((3-fluoroazetidin-1-yl)methyl)-6-methoxypyridin-2-yl)-[1,1′-biphenyl]-3-yl)-1,5-dimethyl-4,5,6,7-tetrahydro-1H-imidazo[4,5-c]pyridine-2-carboxamide]",–,0.07,3.2,–,15.8,–,–
"COc1nc(-c2cccc(-c3cccc(NC(=O)c4nc5c(n4C)CCN(C)C5)c3Cl)c2Cl)ccc1CN1CC2(CCC(=O)N2)C1 [Embodiment 126, N-(2,2′-Dichloro-3′-(6-methoxy-5-((6-carbonyl-2,5-diazaspiro[3.4]octan-2-yl)methyl)pyridin-2-yl)-[1,1′-biphenyl]-3-yl)-1,5-dimethyl-4,5,6,7-tetrahydro-1H-imidazo[4,5-c]pyridine-2-carboxamide]",17.1,0.094,3.5,–,–,–,–
